Laboratory results as given in publication PMC10804494 (BMC Complementary Medicine and Therapies, 2024).
≈ marks a conversion by molar mass, not a printed value. Where a name gives a salt, the structure may show the parent alone. Read-outs that look alike come from different tables or passages of the source.

What was measured:
[1] = tested on: highly pathogenic avian influenza A/chicken/Egypt/N12640A/2016 (H5N1); experiment: microbe, parasite or virus in culture; type: cell-based, influenza A/H5N1 virus
[2] = tested on: influenza A/H5N1 virus; experiment: microbe, parasite or virus in culture; type: cell-based
[3] = tested on: influenza A/H5N1 virus; experiment: microbe, parasite or virus in culture; type: cell-based; details: H5N1, MDCK, read-out: Viral inhibition percentage, Viral Replication
[4] = tested on: influenza A/H1N1; experiment: Plaque reduction assay, A/H1N1; type: cell-based, influenza A/H1N1 virus; details: A/H1N1, MDCK, low non-toxic concentrations, Fig. 4
[5] = tested on: seasonal influenza A/Egypt/NRC098/2019(H1N1); experiment: microbe, parasite or virus in culture; type: cell-based; details: H1N1, MDCK, 72 h
[6] = tested on: influenza A/H5N1; type: cell-based, influenza A/H5N1 virus
[7] = tested on: influenza A/H5N1 virus; experiment: microbe, parasite or virus in culture; type: cell-based; details: H5N1, MDCK, read-out: Viral inhibition percentage, Virucidal
[8] = in vitro; details: dog
[9] = tested on: MDCK cells; details: dog
[10] = cited from earlier work
[11] = tested on: IAV (A/Puerto Rico/8/1934(H1N1)); details: A/Puerto Rico/8/1934(H1N1) in mice; cited from earlier work
[12] = Influenza A virus, H5N1, MDCK, 72 h
[13] = Influenza A virus, H5N1, MDCK, read-out: Viral inhibition percentage, Viral Adsorption

Work on `CN1C2CC(OC(=O)C(CO)c3ccccc3)CC1C1OC12` (single isomer, unassigned; (-)) [(-)Scopolamine HCl] yielded an IC50 [1, 12] of 360 µg/mL.

Work on `CN1C2CCC1CC(OC(=O)C(CO)c1ccccc1)C2` (stereo not shown) [Atropine sulphate] yielded an inhibition at 1 µg/mL [2, 13] of 36.2%, an inhibition at 10 µg/mL [2, 13] of 45.2% and an inhibition at 100 µg/mL [2, 13] of 52.4%. For the same molecule, the inhibition at 1 µg/mL [3] was 32.8%, the inhibition at 10 µg/mL [3] was 41.2% and the inhibition at 100 µg/mL [3] was 52.9%. For the same molecule, the “reduction of viral titers (in words)” value [4] was “high capacity to reduce viral titers”, the IC50 [1, 12] was 2.26 µg/mL and the IC50 [5] was 0.204 µg/mL. The “reduction of viral titers (in words)” value [6] was “high capacity to reduce viral titers”, the inhibition at 1 µg/mL [7] was 90.5% and the inhibition at 10 µg/mL [7] was 97.6%. It also gave an inhibition at 100 µg/mL [7] of 100%.

In the case of `Cn1c(=O)c2c(ncn2C)n(C)c1=O` [Caffeine], the IC50 [1, 12] is reported as 85.7 µg/mL (≈ 441 µM) and the CC50 [8] is reported as > 10000 µg/mL.

With `COc1cc2c(c(OC)c1OC)-c1ccc(OC)c(=O)cc1[C@@H](NC(C)=O)CC2` [Colchicine, (S)-N-(1,2,3,10-tetramethoxy-9-oxo-5,6,7,9-tetrahydrobenzo[a]heptalen-7-yl)acetamide] the “Viral inhibition percentage, Viral Adsorption” value [2] was 73.05%, the inhibition at 1 µg/mL [2, 13] was 55% and the inhibition at 10 µg/mL [2, 13] was 64.1%. The inhibition at 100 µg/mL [2, 13] was 73%, the CC50 [9] was 3370 µg/mL (≈ 8440 µM) and the inhibition at 1 µg/mL [3] was 85.7%. For the same molecule, the inhibition at 10 µg/mL [3] was 87%, the inhibition at 100 µg/mL [3] was 91.1% and the “reduction of viral titers (in words)” value [4] was “high capacity to reduce viral titers”. For the same molecule, the CC50 [8] was 2380 µg/mL (≈ 5960 µM), the “reduction of viral titers (in words)” value [6] was “high capacity to reduce viral titers” and the inhibition at 1 µg/mL [7] was 25%. For the same molecule, the inhibition at 10 µg/mL [7] was 38%, the inhibition at 100 µg/mL [7] was 47.1% and the toxic range [10] was 0.6 mg.

For `CN[C@@H](C)[C@H](O)c1ccccc1` [Ephedrine HCl], the IC50 [1] was 186 µg/mL, the IC50 [1, 12] was 186 µg/mL and the CC50 [8] was > 10000 µg/mL.

For `COc1ccc(Cc2nccc3cc(OC)c(OC)cc23)cc1OC` [Papaverine HCl], the “anti-influenza activity against A/H5N1 virus (in words)” value [1] was “poor anti-influenza activity” and the CC50 [8] was 274 µg/mL.

Molecule `CC[C@@H]1C(=O)OC[C@@H]1Cc1cncn1C` [Pilocarpine HCl] has an inhibition at 10 µg/mL [2, 13] of 37.8%, an inhibition at 100 µg/mL [2, 13] of 44.6% and an inhibition at 1000 µg/mL [2, 13] of 56.9%. For the same molecule, the inhibition at 10 µg/mL [3] was 35.3%, the inhibition at 100 µg/mL [3] was 46.9% and the inhibition at 1000 µg/mL [3] was 53.1%. For the same molecule, the “reduction of viral titers (in words)” value [4] was “high capacity to reduce viral titers”, the IC50 [1, 12] was 0.21 µg/mL and the IC50 [5] was 0.637 µg/mL. The CC50 [8] was 3320 µg/mL, the “reduction of viral titers (in words)” value [6] was “high capacity to reduce viral titers” and the inhibition at 10 µg/mL [7] was 94.9%. It also gave an inhibition at 100 µg/mL [7] of 99.1% and an inhibition at 1000 µg/mL [7] of 100%.

With `C=C[C@H]1C[N@@]2CC[C@H]1C[C@@H]2[C@@H](O)c1ccnc2ccc(OC)cc12` [Quinidine Sulphate, Quinidine sulphate] the CC50 [8] was > 10000 µg/mL.

In the case of `C=C[C@H]1C[N@@]2CC[C@H]1C[C@H]2[C@H](O)c1ccnc2ccc(OC)cc12` [Quinine sulphate], the “antiviral effect in mice (in words)” value [11] is listed as “exert an antiviral effect”, the “anti-influenza activity against A/H5N1 virus (in words)” value [1] is listed as “no anti-influenza activity” and the CC50 [8] is listed as > 10000 µg/mL.

With `C[n+]1cccc(C(=O)[O-])c1` [Trigonelline HCl] the CC50 [8] was > 10000 µg/mL.

In the case of `CC(=O)N[C@H]1[C@H]([C@H](O)[C@H](O)CO)OC(C(=O)O)=C[C@@H]1N=C(N)N` [Zanamivir], the IC50 [1, 12] is reported as 0.358 µg/mL (≈ 1.08 µM), the IC50 [5] is reported as 0.265 µg/mL (≈ 0.797 µM) and the CC50 [8] is reported as > 10000 µg/mL.
